Experimental data published in PubChem BioAssay AID248 (DTP/NCI, 2004).
Inconclusive results and toxic doses are left out. Cut-off read from the data, not from the text of the source: active = T/C of 150% or more; inactive = T/C below 125%.

Tested on: L1210 leukemia ip in BDF1 mice, survival T/C
Assay: NCI In Vivo Anticancer Drug Screen. Data for tumor model L1210 Leukemia (intraperitoneal) in B6D2F1 (BDF1) mice
Conditions: endpoint: mean survival time, higher = longer survival
Summary of the method: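 Transplantable tumor model; survival measured in treated vs vehicle control mice. Value = treated/control.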

[1] = dose: 12.5 mg/kg/injection, schedule: Q01DX009 (ip), vehicle: saline
[2] = dose: 25.0 mg/kg/injection, schedule: Q01DX009 (ip), vehicle: saline
[3] = dose: 50.0 mg/kg/injection, schedule: Q01DX009 (ip), vehicle: saline
[4] = dose: 100.0 mg/kg/injection, schedule: Q01DX009 (ip), vehicle: Klucel (hydroxypropylcellulose) (HPC)
[5] = dose: 100.0 mg/kg/injection, schedule: Q04DX003 (ip), vehicle: Klucel (hydroxypropylcellulose) (HPC)
[6] = dose: 200.0 mg/kg/injection, schedule: Q01DX009 (ip), vehicle: Klucel (hydroxypropylcellulose) (HPC)
[7] = dose: 200.0 mg/kg/injection, schedule: Q04DX003 (ip), vehicle: Klucel (hydroxypropylcellulose) (HPC)
[8] = dose: 400.0 mg/kg/injection, schedule: Q01DX009 (ip), vehicle: Klucel (hydroxypropylcellulose) (HPC)
[9] = dose: 400.0 mg/kg/injection, schedule: Q04DX003 (ip), vehicle: Klucel (hydroxypropylcellulose) (HPC)
[10] = dose: 100.0 mg/kg/injection, schedule: Q01DX001 (ip), vehicle: saline
[11] = dose: 200.0 mg/kg/injection, schedule: Q01DX001 (ip), vehicle: saline
[12] = dose: 400.0 mg/kg/injection, schedule: Q01DX001 (ip), vehicle: saline
[13] = dose: 100.0 mg/kg/injection, schedule: Q04DX002 (ip), vehicle: saline
[14] = dose: 200.0 mg/kg/injection, schedule: Q04DX002 (ip), vehicle: saline
[15] = dose: 400.0 mg/kg/injection, schedule: Q04DX002 (ip), vehicle: saline
[16] = dose: 50.0 mg/kg/injection, schedule: Q01DX009 (ip), vehicle: Klucel (hydroxypropylcellulose) (HPC)
[17] = dose: 100.0 mg/kg/injection, schedule: Q04DX002 (ip), vehicle: Klucel (hydroxypropylcellulose) (HPC)
[18] = dose: 200.0 mg/kg/injection, schedule: Q04DX002 (ip), vehicle: Klucel (hydroxypropylcellulose) (HPC)
[19] = dose: 400.0 mg/kg/injection, schedule: Q04DX002 (ip), vehicle: Klucel (hydroxypropylcellulose) (HPC)
[20] = dose: 100.0 mg/kg/injection, schedule: Q01DX001 (ip), vehicle: Klucel (hydroxypropylcellulose) (HPC)
[21] = dose: 50.0 mg/kg/injection, schedule: Q01DX001 (ip), vehicle: saline

Measured: T/C

CCC(C)N(CCCOC(=O)c1ccc(N)cc1)C(C)CC (centres undefined)
inactive: [1] 106 % of control | [2] 104 % of control | [3] 97 % of control

COc1ccc(NC(=O)Nc2ccccc2Cl)cc1
inactive: [4] 96 % of control | [5] 90 % of control | [6] 95 % of control | [7] 92 % of control | [8] 91 % of control | [9] 90 % of control

Nc1ccc(Oc2ccc(S(=O)(=O)O)cc2)cc1
inactive: dose: 100.0 mg/kg/injection, schedule: Q04DX003 (ip), vehicle: saline 93 % of control | dose: 200.0 mg/kg/injection, schedule: Q04DX003 (ip), vehicle: saline 94 % of control | dose: 400.0 mg/kg/injection, schedule: Q04DX003 (ip), vehicle: saline 94 % of control

CCCCCCSc1n[nH]c(=O)[nH]c1=O
inactive: [10] 97 % of control | [11] 95 % of control | [12] 108 % of control

COc1ccc(OC(C)OCCOCCOC(C)=O)cc1 (centres undefined)
inactive: [13] 104 % of control | [14] 93 % of control | [15] 107 % of control

Cc1ccc(N2CCN(CC(O)c3ccccc3)CC2)cc1 (centres undefined)
inactive: [16] 95 % of control | [4] 95 % of control | [6] 98 % of control

COc1cc(C(=O)N=Nc2c(O)[nH]c3ccc(Br)cc23)cc(OC)c1OC
inactive: [17] 115 % of control | [18] 104 % of control | [19] 115 % of control

CC(=O)OCC1OC(n2ncc3c(=S)nc[nH]c32)C(OC(C)=O)C1OC(C)=O (centres undefined)
inactive: dose: 12.5 mg/kg/injection, schedule: Q01DX005 (ip), vehicle: other 98 % of control | dose: 25.0 mg/kg/injection, schedule: Q01DX005 (ip), vehicle: other 95 % of control | dose: 50.0 mg/kg/injection, schedule: Q01DX005 (ip), vehicle: other 104 % of control | dose: 100.0 mg/kg/injection, schedule: Q01DX005 (ip), vehicle: other 97 % of control | dose: 200.0 mg/kg/injection, schedule: Q01DX005 (ip), vehicle: other 93 % of control

O=C(O)c1ccc(N=Nc2nc3[nH]c(=O)[nH]c(=O)c3[nH]2)cc1
inactive: [16] 97 % of control | [4] 97 % of control | [6] 87 % of control

COC(=O)c1cc([N+](=O)[O-])cc([N+](=O)[O-])c1O
inactive: [16] 87 % of control | dose: 100.0 mg/kg/injection, schedule: Q04DX002 (ip), vehicle: saline with Tween-80 100 % of control | dose: 200.0 mg/kg/injection, schedule: Q04DX002 (ip), vehicle: saline with Tween-80 105 % of control

CCc1cc(O)c(Cl)c(C)c1Cl
inactive: dose: 50.0 mg/kg/injection, schedule: Q01DX009 (ip), vehicle: gum acacia 97 % of control | dose: 50.0 mg/kg/injection, schedule: Q04DX003 (ip), vehicle: gum acacia 94 % of control | dose: 100.0 mg/kg/injection, schedule: Q01DX009 (ip), vehicle: gum acacia 92 % of control | dose: 100.0 mg/kg/injection, schedule: Q04DX003 (ip), vehicle: gum acacia 98 % of control | dose: 200.0 mg/kg/injection, schedule: Q04DX003 (ip), vehicle: gum acacia 96 % of control

COc1ccccc1NC1=C(NC(C)=O)C(=O)c2ccccc2C1=O
inactive: dose: 100.0 mg/kg/injection, schedule: Q04DX003 (ip), vehicle: saline with Tween-80 95 % of control | dose: 200.0 mg/kg/injection, schedule: Q04DX003 (ip), vehicle: saline with Tween-80 95 % of control | dose: 400.0 mg/kg/injection, schedule: Q04DX003 (ip), vehicle: saline with Tween-80 97 % of control

Cn1cc[n+](C)c1
inactive: [10] 102 % of control | [11] 97 % of control | [12] 100 % of control

C/C(N)=N\O
inactive: [13] 105 % of control | [14] 102 % of control | [15] 105 % of control

CCOC(=O)c1cnc(SC)nc1Nc1ccc(Cl)cc1Cl
inactive: [4] 103 % of control | [6] 97 % of control | [8] 92 % of control

CCCCCCCCCCC/C=N\N(C)C
inactive: [17] 96 % of control | [18] 92 % of control | [19] 103 % of control

CC1(C)N=C(N)N=C(N)N1c1ccc(CCNC(=O)c2ccc(S(=O)(=O)F)cc2)cc1
inactive: dose: 25.0 mg/kg/injection, schedule: Q01DX001 (ip), vehicle: Klucel (hydroxypropylcellulose) (HPC) 90 % of control | dose: 50.0 mg/kg/injection, schedule: Q01DX001 (ip), vehicle: Klucel (hydroxypropylcellulose) (HPC) 96 % of control | [20] 90 % of control

Cc1cccc(CO)c1NC(=O)NCCCl
inactive: [5] 99 % of control | [7] 110 % of control | [9] 103 % of control

Cc1cc2nc(N)[nH]c2cc1C
inactive: dose: 12.5 mg/kg/injection, schedule: Q04DX002 (ip), vehicle: saline + alcohol 96 % of control | dose: 25.0 mg/kg/injection, schedule: Q04DX002 (ip), vehicle: saline + alcohol 96 % of control | dose: 50.0 mg/kg/injection, schedule: Q04DX002 (ip), vehicle: saline + alcohol 100 % of control

Cn1c(=O)c2[nH]c(C3CC4C5CCC(C5)C4C3)nc2n(C)c1=O (centres undefined)
inactive: [21] 100 % of control | [10] 108 % of control | [11] 100 % of control | [12] 96 % of control

CC(=O)c1ccc(O)cc1
inactive: [17] 114 % of control | [18] 96 % of control | [19] 96 % of control

N#CCc1ccc2c(c1)Sc1ccccc1O2
inactive: [4] 94 % of control | [6] 100 % of control | [8] 93 % of control

O=C1c2ccccc2-c2cc(Cl)cc(Cl)c21
inactive: dose: 100.0 mg/kg/injection, schedule: Q01DX001 (ip), vehicle: carboxymethylcellulose (CMC) 95 % of control | dose: 200.0 mg/kg/injection, schedule: Q01DX001 (ip), vehicle: carboxymethylcellulose (CMC) 96 % of control | dose: 400.0 mg/kg/injection, schedule: Q01DX001 (ip), vehicle: carboxymethylcellulose (CMC) 102 % of control

CC1(C)CCN1Cc1ccccc1
inactive: dose: 12.0 mg/kg/injection, schedule: Q01DX001 (ip), vehicle: saline 98 % of control | dose: 12.0 mg/kg/injection, schedule: Q04DX003 (ip), vehicle: saline 95 % of control | [1] 95 % of control | dose: 25.0 mg/kg/injection, schedule: Q01DX001 (ip), vehicle: saline 100 % of control | [2] 101 % of control | dose: 25.0 mg/kg/injection, schedule: Q04DX003 (ip), vehicle: saline 101 % of control | [21] 96 % of control | [3] 123 % of control | dose: 50.0 mg/kg/injection, schedule: Q04DX003 (ip), vehicle: saline 96 % of control

O=C(O)CSc1ccccc1C(=O)O
inactive: [21] 93 % of control | dose: 75.0 mg/kg/injection, schedule: Q04DX003 (ip), vehicle: Klucel (hydroxypropylcellulose) (HPC) 94 % of control | [20] 96 % of control | [10] 100 % of control | dose: 150.0 mg/kg/injection, schedule: Q04DX003 (ip), vehicle: Klucel (hydroxypropylcellulose) (HPC) 90 % of control | dose: 200.0 mg/kg/injection, schedule: Q01DX001 (ip), vehicle: Klucel (hydroxypropylcellulose) (HPC) 120 % of control | [11] 102 % of control | dose: 300.0 mg/kg/injection, schedule: Q04DX003 (ip), vehicle: Klucel (hydroxypropylcellulose) (HPC) 92 % of control | dose: 400.0 mg/kg/injection, schedule: Q01DX001 (ip), vehicle: Klucel (hydroxypropylcellulose) (HPC) 102 % of control

O=C1Nc2cc(C(F)(F)F)ccc2/C1=C/c1ccc(Cl)cc1
inactive: dose: 75.0 mg/kg/injection, schedule: Q01DX001 (ip), vehicle: saline 92 % of control | dose: 75.0 mg/kg/injection, schedule: Q04DX003 (ip), vehicle: saline 96 % of control | dose: 150.0 mg/kg/injection, schedule: Q01DX001 (ip), vehicle: saline 97 % of control | dose: 150.0 mg/kg/injection, schedule: Q04DX003 (ip), vehicle: saline 100 % of control | dose: 300.0 mg/kg/injection, schedule: Q01DX001 (ip), vehicle: saline 97 % of control | dose: 300.0 mg/kg/injection, schedule: Q04DX003 (ip), vehicle: saline 94 % of control

Cc1nccnc1Sc1ccc2ccccc2c1
inactive: [4] 95 % of control | [6] 92 % of control | [8] 90 % of control
